Data taken from PubChem BioAssay (NCI).
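48-hour exposure; five concentrations; linearly interpolated endpoints. GI50 is the concentration that inhibits growth by half. Definition used: TGI = concentration required for complete inhibition of growth.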

What was measured:
Assay in all cases: NCI-60 cell line screen, 48 h
[1] = system: SK-MEL-28 melanoma
[2] = system: TK-10 renal
[3] = system: MALME-3M melanoma
[4] = system: CAKI-1 renal
[5] = system: SK-OV-3 ovarian
[6] = system: OVCAR-3 ovarian
[7] = system: SN12C renal
[8] = system: HOP-92 NSCLC
[9] = system: DU-145 prostate
[10] = system: SNB-75 CNS
[11] = system: SK-MEL-2 melanoma
[12] = system: OVCAR-5 ovarian
[13] = system: BT-549 breast
[14] = system: SW-620 colon
[15] = system: EKVX NSCLC
[16] = system: NCI/ADR-RES ovarian
[17] = system: A498 renal
[18] = system: NCI-H226 lung
[19] = system: SNB-19 CNS
[20] = system: HOP-62 NSCLC
[21] = system: RPMI-8226 leukemia
[22] = system: U251 CNS
[23] = system: M14 melanoma
[24] = system: LOX IMVI melanoma
[25] = system: HCT-15 colon
[26] = system: SK-MEL-5 melanoma
[27] = system: OVCAR-8 ovarian
[28] = system: HL-60(TB) leukemia
[29] = system: HCC-2998 colon
[30] = system: UACC-257 melanoma
[31] = system: SF-295 CNS
[32] = system: K-562 leukemia
[33] = system: A549 NSCLC
[34] = system: UO-31 renal
[35] = system: NCI-H460 lung
[36] = system: CCRF-CEM leukemia
[37] = system: T-47D breast
[38] = system: SF-268 CNS
[39] = system: PC-3 prostate
[40] = system: HT29 colon
[41] = system: IGROV1 ovarian
[42] = system: ACHN renal
[43] = system: KM12 colon
[44] = system: RXF 393 renal
[45] = system: NCI-H23 lung
[46] = system: HCT-116 colon
[47] = system: NCI-H522 lung
[48] = system: MOLT-4 leukemia
[49] = system: MCF7 breast
[50] = system: MDA-MB-435
[51] = system: 786-0 renal
[52] = system: MDA-MB-231 breast
[53] = system: SF-539 CNS
[54] = system: COLO 205 colon
[55] = system: HS 578T breast
[56] = system: OVCAR-4 ovarian
[57] = system: UACC-62 melanoma

**Q.** What does the source list for `CC(C)(C)CC(C)(C)c1ccc(OCCSC(=N)N)cc1`?
**A.** GI50 [1]: 1700 nM; TGI [1]: 3.34 µM; GI50 [2]: 1760 nM; TGI [2]: 3.34 µM; GI50 [3]: 1810 nM; TGI [3]: 3.46 µM; GI50 [4]: 3.13 µM; TGI [4]: 13.6 µM; GI50 [5]: 2570 nM; TGI [5]: 5.54 µM; GI50 [6]: 1470 nM; TGI [6]: 2890 nM; GI50 [7]: 1680 nM; TGI [7]: 3.21 µM; GI50 [8]: 1140 nM; TGI [8]: 2570 nM; GI50 [9]: 1740 nM; TGI [9]: 3.22 µM; GI50 [10]: 1430 nM; TGI [10]: 2790 nM; GI50 [11]: 1960 nM; TGI [11]: 3.7 µM; GI50 [12]: 1880 nM; TGI [12]: 3.77 µM; GI50 [13]: 2020 nM; TGI [13]: 4.8 µM; GI50 [14]: 1450 nM; TGI [14]: 3.34 µM; GI50 [15]: 1410 nM; TGI [15]: 2980 nM; GI50 [16]: 1870 nM; TGI [16]: 3.88 µM; GI50 [17]: 2340 nM; TGI [17]: 11.5 µM; GI50 [18]: 1930 nM; TGI [18]: 5.83 µM; GI50 [19]: 1700 nM; TGI [19]: 3.45 µM; GI50 [20]: 2150 nM; TGI [20]: 4 µM; GI50 [21]: 1360 nM; TGI [21]: 3.59 µM; GI50 [22]: 1570 nM; TGI [22]: 3.17 µM; GI50 [23]: 1680 nM; TGI [23]: 3.42 µM; GI50 [24]: 1480 nM; TGI [24]: 2920 nM; GI50 [25]: 1060 nM; TGI [25]: 2380 nM; GI50 [26]: 1370 nM; TGI [26]: 2680 nM; GI50 [27]: 2080 nM; TGI [27]: 5.08 µM; GI50 [28]: 1600 nM; TGI [28]: 3.52 µM; GI50 [29]: 610 nM; TGI [29]: 1880 nM; GI50 [30]: 1720 nM; TGI [30]: 3.45 µM; GI50 [31]: 1690 nM; TGI [31]: 3.12 µM; GI50 [32]: 833 nM; TGI [32]: 3.86 µM; GI50 [33]: 1910 nM; TGI [33]: 4.43 µM; GI50 [34]: 1580 nM; TGI [34]: 3.97 µM; GI50 [35]: 1890 nM; TGI [35]: 3.87 µM; GI50 [36]: 1990 nM; TGI [36]: 5.32 µM; GI50 [37]: 1630 nM; TGI [37]: 3.91 µM; GI50 [38]: 2010 nM; TGI [38]: 4.05 µM; GI50 [39]: 1610 nM; TGI [39]: 4.17 µM; GI50 [40]: 417 nM; TGI [40]: 1850 nM; GI50 [41]: 2310 nM; TGI [41]: 5.2 µM; GI50 [42]: 1640 nM; TGI [42]: 3.27 µM; GI50 [43]: 1500 nM; TGI [43]: 3.05 µM; GI50 [44]: 1180 nM; TGI [44]: 2580 nM; GI50 [45]: 1810 nM; TGI [45]: 3.68 µM; GI50 [46]: 1380 nM; TGI [46]: 2850 nM; GI50 [47]: 1590 nM; TGI [47]: 3.45 µM; GI50 [48]: 1700 nM; TGI [48]: 4.8 µM; GI50 [49]: 1320 nM; TGI [49]: 3000 nM; GI50 [50]: 1450 nM; TGI [50]: 2800 nM; GI50 [51]: 1510 nM; TGI [51]: 3.09 µM; GI50 [52]: 1220 nM; TGI [52]: 2800 nM; GI50 [53]: 1750 nM; TGI [53]: 3.35 µM; GI50 [54]: 564 nM; TGI [54]: 2010 nM; GI50 [55]: 2150 nM; TGI [55]: 5.42 µM; GI50 [56]: 1430 nM; TGI [56]: 2910 nM; GI50 [57]: 1720 nM; TGI [57]: 3.16 µM
